For orientation: IC50 means the concentration that gives 50% inhibition.

Results on eleven compounds are retold here after US20200361914A1, “SUBSTITUTED BENZENE AND 6,5-FUSED BICYCLIC HETEROARYL COMPOUNDS” (Epizyme, Inc., priority 2014, published 2020).

For experiment [1], the system named is H3K27 trimethylation in WSU-DLCL2 cells. Kind of experiment: WSU-DLCL2 methylation assay (H3K27me3 ELISA). Format: cell-based, Human. To be noted: H3K27me3 normalised to total H3, read-out: EZH2 WSU ELISA IC50. The source says: WSU-DLCL2 Methylation Assay
WSU-DLCL2 suspension cells are purchased from DSMZ (German Collection of Microorganisms and Cell Cultures, Braunschweig, Germany). RPMI/Glutamax Medium, Penicillin-Streptomycin, Heat Inactivated Fetal Bovine Serum, and D-PBS were purchased from Life Technologies, Grand Island, N.Y., USA. Extraction Buffer and Neutralization Buffer (5×) were purchased from Active Motif, Carlsbad, Calif., USA. Rabbit anti-Histone H3 antibody is purchased from Abcam, Cambridge, Mass., USA. Rabbit anti-H3K27me3 and HRP-conjugated anti-rabbit-IgG are purchased from Cell Signaling Technology, Danvers, Mass., USA. TMB “Super Sensitive” substrate is sourced from BioFX Laboratories, Owings Mills, Md., USA. IgG-free Bovine Serum Albumin is purchased from Jackson ImmunoResearch, West Grove, Pa., USA. PBS with Tween (10×PBST) was purchased from KPL, Gaithersburg, Md., USA. Sulfuric Acid is purchased from Ricca Chemical, Arlington, Tex., USA. Immulon ELISA plates were purchased from Thermo, Rochester, N.Y., USA. V-bottom cell culture plates are purchased from Corning Inc., Corning, N.Y., USA.V-bottom polypropylene plates were purchased from Greiner Bio-One, Monroe, N.C., USA.
WSU-DLCL2 suspension cells are maintained in growth medium (RPMI 1640 supplemented with 10% v/v heat inactivated fetal bovine serum and 100 units/mL penicillin-streptomycin) and cultured at 37° C. under 5% CO2. Under assay conditions, cells are incubated in Assay Medium (RPMI 1640 supplemented with 20% v/v heat inactivated fetal bovine serum and 100 units/mL penicillin-streptomycin) at 37° C. under 5% CO2 on a plate shaker.
WSU-DLCL2 cells are seeded in assay medium at a concentration of 50,000 cells per mL to a 96-well V-bottom cell culture plate with 200 μL per well. Compound (1 μL) from 96 well source plates is added directly to V-bottom cell plate. Plates are incubated on a titer-plate shaker at 37° C., 5% CO2 for 96 hours. After four days of incubation, plates are spun at 241×g for five minutes and medium was aspirated gently from each well of cell plate without disturbing cell pellet. Pellet is resuspended in 200 μL DPBS and plates are spun again at 241×g for five minutes. The supernatant is aspirated and cold (4° C.) Extraction buffer (100 μL) is added per well. Plates are incubated at 4° C. on orbital shaker for two hours. Plates are spun at 3427×g x 10 minutes. Supernatant (80 μL per well) is transferred to its respective well in 96 well V-bottom polypropylene plate. Neutralization Buffer 5×(20 μL per well) is added to V-bottom polypropylene plate containing supernatant. V-bottom polypropylene plates containing crude histone preparation (CHP) are incubated on orbital shaker x five minutes. Crude Histone Preparations are added (2 μL per well) to each respective well into duplicate 96 well ELISA plates containing 100 μL Coating Buffer (1×PBS+BSA 0.05% w/v). Plates are sealed and incubated overnight at 4° C. The following day, plates were washed three times with 300 μL per well 1×PBST. Wells are blocked for two hours with 300 μL per well ELISA Diluent ((PBS (1×) BSA (2% w/v) and Tween20 (0.05% v/v)). Plates are washed three times with 1×PBST. For the Histone H3 detection plate, 100 μL per well are added of anti-Histone-H3 antibody (Abcam, ab1791) diluted 1:10,000 in ELISA Diluent. For H3K27 trimethylation detection plate, 100 μL per well are added of anti-H3K27me3 diluted 1:2000 in ELISA diluent. Plates are incubated for 90 minutes at room temperature. Plates are washed three times with 300 μL 1×PBST per well. For Histone H3 detection, 100 μL of HRP-conjugated anti-rabbit IgG antibody diluted to 1:6000 in ELISA diluent is added per well. For H3K27me3 detection, 100 μL of HRP conjugated anti-rabbit IgG antibody diluted to 1:4000 in ELISA diluent is added per well. Plates are incubated at room temperature for 90 minutes. Plates are washed four times with 1×PBST 300 μL per well. TMB substrate 100 μL is added per well. […]

Experiment [2] has as its target wild-type PRC2 enzyme (EZH2 WT) (Homo sapiens, UniProt Q15910). Kind of experiment: PRC2 enzyme assay on peptide substrate, wild-type EZH2.
Description: (§1) S-adenosylmethionine (SAM), S-adenosylhomocyteine (SAH), bicine, KCl, Tween20, dimethylsulfoxide (DMSO) and bovine skin gelatin (BSG) can be purchased from Sigma-Aldrich at the highest level of purity possible. Dithiothreitol (DTT) was purchased from EMD. ^3H-SAM can be purchased from American Radiolabeled Chemicals with a specific activity of 80 C1/mmol. 384-well streptavidin Flashplates can be purchased from PerkinElmer.
(§2) Recombinant PRC2 Enzymes. Human PRC2 enzymes are purified as 4-component enzyme complexes co-expressed in Spodoptera frugiperda (sf9) cells using a baculovirus expression system. […] The EED subunit contains an N-terminal FLAG tag that is used to purify the entire 4-component complex from sf9 cell lysates. The purity of the complexes meets or exceeds 95% as determined by SDS-PAGE and Agilent Bioanalyzer analysis.
(§3) General Procedure for PRC2 Enzyme Assays on Peptide Substrates. The assays are all performed in a buffer consisting of 20 mM bicine (pH=7.6), 0.5 mM DTT, 0.005% BSG and 0.002% Tween20, prepared on the day of use. […] DMSO (1 μL) is added to columns 11, 12, 23, 24, rows A-H for the maximum signal control, and SAH, a known product and inhibitor of PRC2 (1 μL) is added to columns 11, 12, 23, 24, rows I-P for the minimum signal control. A cocktail (40 μL) containing the wild-type PRC2 enzyme and H3K27me0 peptide or any of the Y641 mutant enzymes and H3K27me2 peptide is added by Multidrop Combi (Thermo). The compounds are allowed to incubate with PRC2 for 30 min at 25° C., then a cocktail (10 μL) containing a mixture of non-radioactive and ^3H-SAM is added to initiate the reaction (final volume=51 μL). […] The assays are stopped by the addition of non-radioactive SAM (10 μL) to a final concentration of 600 μM, which dilutes the ^3H-SAM to a level where its incorporation into the peptide substrate is no longer detectable. 50 μL of the reaction in the 384-well polypropylene plate is then transferred to a 384-well Flashplate and the biotinylated peptides are allowed to bind to the streptavidin surface for at least 1h before being washed three times with 0.1% Tween20 in a Biotek ELx405 plate washer. The plates are then read in a PerkinElmer TopCount platereader to measure the quantity of ^3H-labeled peptide bound to the Flashplate surface, measured as disintegrations per minute (dpm) or alternatively, referred to as counts per minute (cpm).
(§4) Where dpm=disintegrations per minute, cmpd=signal in assay well, and min and max are the respective minimum and maximum signal controls.
(§5) Where top and bottom are the normally allowed to float, but may be fixed at 100 or 0 respectively in a 3-parameter fit. The Hill Coefficient normally allowed to float but may also be fixed at 1 in a 3-parameter fit. Y is the % inhibition and X is the compound concentration.
For experiment [3], the target named is Y641 mutant PRC2 enzyme (EZH2 Y641) (Homo sapiens, UniProt Q15910, Y641F). Kind of experiment: PRC2 enzyme assay on peptide substrate, Y641 mutant EZH2.
Sequence of Y641 mutant PRC2 enzyme (EZH2 Y641) (Q15910 whole entry Y641F): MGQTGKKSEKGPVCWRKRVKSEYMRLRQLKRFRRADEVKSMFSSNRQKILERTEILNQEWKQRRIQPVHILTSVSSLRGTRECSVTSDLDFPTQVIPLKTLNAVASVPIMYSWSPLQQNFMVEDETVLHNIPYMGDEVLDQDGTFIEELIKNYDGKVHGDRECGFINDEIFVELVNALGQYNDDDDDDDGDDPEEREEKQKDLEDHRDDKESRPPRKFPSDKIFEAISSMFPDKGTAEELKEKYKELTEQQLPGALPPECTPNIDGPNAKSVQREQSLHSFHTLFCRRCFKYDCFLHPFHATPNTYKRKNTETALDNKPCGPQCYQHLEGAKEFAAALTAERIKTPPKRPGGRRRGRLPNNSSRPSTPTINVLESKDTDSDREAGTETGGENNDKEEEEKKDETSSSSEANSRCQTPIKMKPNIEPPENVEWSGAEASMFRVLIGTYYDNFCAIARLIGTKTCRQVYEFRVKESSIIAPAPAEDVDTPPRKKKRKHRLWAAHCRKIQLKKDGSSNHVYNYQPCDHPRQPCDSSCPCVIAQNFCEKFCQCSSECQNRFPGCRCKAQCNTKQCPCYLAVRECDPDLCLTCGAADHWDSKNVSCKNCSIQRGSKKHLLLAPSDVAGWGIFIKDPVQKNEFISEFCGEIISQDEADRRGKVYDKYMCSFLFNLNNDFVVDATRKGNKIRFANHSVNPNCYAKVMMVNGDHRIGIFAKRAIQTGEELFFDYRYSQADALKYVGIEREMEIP
Sequence of Y641 mutant PRC2 enzyme (EZH2 Y641) (O75530 whole entry partner): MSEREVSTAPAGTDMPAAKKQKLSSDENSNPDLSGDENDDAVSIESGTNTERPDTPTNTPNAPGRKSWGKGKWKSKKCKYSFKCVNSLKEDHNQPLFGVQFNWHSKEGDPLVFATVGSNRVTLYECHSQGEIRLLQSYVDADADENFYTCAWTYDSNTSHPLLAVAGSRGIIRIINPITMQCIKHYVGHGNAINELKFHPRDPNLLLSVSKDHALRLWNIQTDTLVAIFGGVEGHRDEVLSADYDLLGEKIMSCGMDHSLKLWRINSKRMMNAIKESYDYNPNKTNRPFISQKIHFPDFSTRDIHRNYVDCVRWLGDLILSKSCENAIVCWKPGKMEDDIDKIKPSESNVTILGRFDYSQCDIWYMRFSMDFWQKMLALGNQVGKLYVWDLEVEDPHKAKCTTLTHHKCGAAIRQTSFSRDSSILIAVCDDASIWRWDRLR
Sequence of Y641 mutant PRC2 enzyme (EZH2 Y641) (Q15022 whole entry partner): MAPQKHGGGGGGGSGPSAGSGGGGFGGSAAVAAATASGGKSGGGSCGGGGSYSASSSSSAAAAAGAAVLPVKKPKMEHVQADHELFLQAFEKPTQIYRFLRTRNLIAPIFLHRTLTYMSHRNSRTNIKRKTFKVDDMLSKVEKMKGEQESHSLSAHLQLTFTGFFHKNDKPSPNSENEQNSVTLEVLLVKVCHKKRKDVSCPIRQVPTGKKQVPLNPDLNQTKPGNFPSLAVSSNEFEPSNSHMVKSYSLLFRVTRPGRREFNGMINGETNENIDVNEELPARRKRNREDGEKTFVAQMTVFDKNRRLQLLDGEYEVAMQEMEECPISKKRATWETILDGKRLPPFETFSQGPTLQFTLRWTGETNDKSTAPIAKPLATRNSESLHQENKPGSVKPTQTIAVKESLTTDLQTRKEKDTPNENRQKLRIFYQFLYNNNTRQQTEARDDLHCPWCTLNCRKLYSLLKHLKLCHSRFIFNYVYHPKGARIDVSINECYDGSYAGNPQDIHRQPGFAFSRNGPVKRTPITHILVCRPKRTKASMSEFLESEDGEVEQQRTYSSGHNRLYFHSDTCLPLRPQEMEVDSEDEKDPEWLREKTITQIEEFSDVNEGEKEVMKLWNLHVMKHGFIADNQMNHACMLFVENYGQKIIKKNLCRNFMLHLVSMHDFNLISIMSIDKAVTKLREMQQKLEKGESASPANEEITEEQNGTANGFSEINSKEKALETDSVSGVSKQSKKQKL
Sequence of Y641 mutant PRC2 enzyme (EZH2 Y641) (Q09028 whole entry partner): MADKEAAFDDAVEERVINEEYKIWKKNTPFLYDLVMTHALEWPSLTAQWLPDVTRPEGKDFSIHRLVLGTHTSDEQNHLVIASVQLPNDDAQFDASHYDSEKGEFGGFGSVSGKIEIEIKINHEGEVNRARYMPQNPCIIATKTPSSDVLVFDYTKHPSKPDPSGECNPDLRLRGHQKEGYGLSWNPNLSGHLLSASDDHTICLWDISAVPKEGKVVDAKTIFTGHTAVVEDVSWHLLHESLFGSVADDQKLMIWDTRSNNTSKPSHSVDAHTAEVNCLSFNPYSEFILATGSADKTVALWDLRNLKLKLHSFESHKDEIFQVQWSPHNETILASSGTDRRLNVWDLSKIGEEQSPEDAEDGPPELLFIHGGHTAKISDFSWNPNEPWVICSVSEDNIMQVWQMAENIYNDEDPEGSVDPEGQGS
Description: as §1, §2, §3, §4, §5
Setting [4] is: Homo sapiens, WSUDLCL2, 96 hours incubation.
Setting [5] is: Homo sapiens, WSUDLCL2, 96 h, 96 hours incubation.

Like-named read-outs stand apart in the source and are kept apart here.

Sequence of wild-type PRC2 enzyme (EZH2 WT) (Q15910 whole entry): as the sequence (Q15910 whole entry Y641F) above, with F641Y counted along it
Sequence of wild-type PRC2 enzyme (EZH2 WT) (O75530 whole entry partner): as the sequence (O75530 whole entry partner) above
Sequence of wild-type PRC2 enzyme (EZH2 WT) (Q15022 whole entry partner): as the sequence (Q15022 whole entry partner) above
Sequence of wild-type PRC2 enzyme (EZH2 WT) (Q09028 whole entry partner): as the sequence (Q09028 whole entry partner) above

Regarding `COc1cc(C)[nH]c(=O)c1CNC(=O)c1c(C)n(C(C)C2CCOCC2)c2ccccc12` (single isomer, unassigned) [24a, N-((4-methoxy-6-methyl-2-oxo-1,2-dihydropyridin-3-yl)methyl)-2-methyl-1-(1-(tetrahydro-2H-pyran-4-yl)ethyl)-1H-indole-3-carboxamide], the IC50 in experiment [1] (96 hours incubation) lay within 10 to 50 µM.
With `COc1cc(C)[nH]c(=O)c1CNC(=O)c1c(C)n(C(C)C2CCOCC2)c2ccccc12` (single isomer, unassigned) [24b, N-((4-methoxy-6-methyl-2-oxo-1,2-dihydropyridin-3-yl)methyl)-2-methyl-1-(1-(tetrahydro-2H-pyran-4-yl)ethyl)-1H-indole-3-carboxamide], the 50% inhibitory concentration (IC50) in experiment [1] (96 hours incubation) is 1 to 10 µM.
With `Cc1cc(=O)c(CNC(=O)c2cc(Cl)c(Oc3cccc(-c4ccnnc4)c3C#N)cc2C)c(C)[nH]1` [compound 16, 5-chloro-4-(2-cyano-3-(pyridazin-4-yl)phenoxy)-N-((2,6-dimethyl-4-oxo-1,4-dihydropyridin-3-yl)methyl)-2-methylbenzamide], the IC50 in experiment [1] (setting [4]) was more than 25 µM.
For the compound `Cc1cc(C)c(CNC(=O)c2cc(Cl)c(C(C)Oc3ccccc3)cc2C)c(=O)[nH]1` (stereo not shown) [compound 12, 5-chloro-N-((4,6-dimethyl-2-oxo-1,2-dihydropyridin-3-yl)methyl)-2-methyl-4-(1-phenoxyethyl)benzamide], the 50% inhibitory concentration (IC50) in experiment [2] was 0.1 to 1 µM; in experiment [1] (setting [4]) it was more than 25 µM; in experiment [3] it was less than 0.1 µM.
The corresponding values for `Cc1cc(=O)c(CNC(=O)c2ccc(C(C)Oc3ccccc3)cc2C)c(C)[nH]1` (stereo not shown) [compound 6, N-((2,6-dimethyl-4-oxo-1,4-dihydropyridin-3-yl)methyl)-2-methyl-4-(1-phenoxyethyl)benzamide] are more than 50 µM, more than 25 µM and 10 to 50 µM.
Take `Cc1cc(C)c(CNC(=O)c2c(C)n(C(C)C3CCOCC3)c3ccccc23)c(=O)[nH]1` (racemic) [compound 19, N-((4,6-dimethyl-2-oxo-1,2-dihydropyridin-3-yl)methyl)-2-methyl-1-(1-(tetrahydro-2H-pyran-4-yl)ethyl)-1H-indole-3-carboxamide]: the IC50 in experiment [1] (setting [5]) fell in the range of 1 to 10 µM.
Turning to `Cc1cc(C)c(CNC(=O)c2ccc(C(C)Oc3ccccc3)cc2C)c(=O)[nH]1` (stereo not shown) [compound 5, N-((4,6-dimethyl-2-oxo-1,2-dihydropyridin-3-yl)methyl)-2-methyl-4-(1-phenoxyethyl)benzamide], the values for the concentration for half-maximal inhibition (IC50) in experiment [2], in experiment [1] (setting [4]) and in experiment [3] were 0.1 to 1 µM, 10 to 50 µM and 0.1 to 1 µM, respectively.
As to `CCC(C)n1cc(C)c2c(C(=O)NCc3c(C)[nH]c(C)cc3=O)cc(-c3ccc(N4CCNCC4)nc3)cc21` (stereo not shown) [compound 25, 1-(sec-butyl)-N-((2,6-dimethyl-4-oxo-1,4-dihydropyridin-3-yl)methyl)-3-methyl-6-(6-(piperazin-1-yl)pyridin-3-yl)-1H-indole-4-carboxamide], the half-inhibitory concentration (IC50) in experiment [2] was less than 0.1 µM; in experiment [1] (setting [4]) it was 10 to 50 µM; in experiment [3] it was less than 0.1 µM.
As to `COc1cc(C)[nH]c(=O)c1CNC(=O)c1c(C)n(C(C)C2CCOCC2)c2ccccc12` (racemic) [compound 24, N-((4-methoxy-6-methyl-2-oxo-1,2-dihydropyridin-3-yl)methyl)-2-methyl-1-(1-(tetrahydro-2H-pyran-4-yl)ethyl)-1H-indole-3-carboxamide], the half-inhibitory concentration (IC50) in experiment [1] (setting [5]) is 1 to 10 µM.
In the case of `CCN(c1cc(-c2ccc(OCCOC)cc2)cc(C(=O)NC2CC(C)(C)NC(C)(C)C2)c1C)[C@H]1CC[C@H](N(C)C)CC1` [compound 33, 5-(((trans)-4-(dimethylamino)cyclohexyl)(ethyl)amino)-4′-(2-methoxyethoxy)-4-methyl-N-(2,2,6,6-tetramethylpiperidin-4-yl)-[1,1′-biphenyl]-3-carboxamide], the 50% inhibitory concentration (IC50) was 10 to 50 µM in experiment [2], more than 25 µM in experiment [1] (setting [4]) and 10 to 50 µM in experiment [3].
As for `COc1nn(C)c(C)c1CNC(=O)c1ccc(Oc2cccc(-c3ccnnc3)c2C#N)c(Cl)c1` [compound 14, 3-chloro-4-(2-cyano-3-(pyridazin-4-yl)phenoxy)-N-((3-methoxy-1,5-dimethyl-1H-pyrazol-4-yl)methyl)benzamide], the IC50 in experiment [2] and in experiment [3] was more than 50 µM throughout.
